Data reported in PMC12615485, “New dengue virus inhibitors targeting NS3-NS5 interaction identified by in silico screening” (Frontiers in Microbiology, 2025).
Entries after “also recorded” stand apart in the source; their conditions may differ. Read-outs that look alike come from different tables or passages of the source.

Tests used:
[1] = biological target: NS3-NS5 interaction (NS3 f.l. binding to coated 6His-NS5_270–900) (Dengue virus type 2, UniProt P14340); test: ELISA-based NS3-NS5 interaction assay; design: species or system DENV-2; settings: for IC50: read-out: In vitro activity IC50
Description: Nunc Maxisorp microplates (Thermo Fisher Scientific) were coated with 400 ng/well of 6His-NS5_270–900, or GST protein as a control, in PBS for 3 h at 37 °C and then blocked with 5% (wt/v) bovine serum albumin (BSA, Merck Life Science) in PBS overnight at 4 °C. Blocked wells were incubated at room temperature (RT) for 2 h with increasing amounts of NS3 f.l. or GST–NS3_172–618. 6His-NS5_270–900-coated plates were also incubated with increasing concentration of GST, as a control. After washing with PBS containing 0.3% Tween 20 (Fisher Scientific, Waltham, MA, United States), the NS3-NS5 interaction was detected by incubating the plates with the anti-NS3 monoclonal antibody (GT2811 clone, Genetex, Irvine, CA, United States) diluted 1:6,000 in PBS + 2% (v/v) FBS (Thermo Fisher Scientific) for 1 h at RT. The unbound primary antibody was removed by further washes with PBS + 0.3% Tween 20 and the secondary goat anti-mouse HRP-conjugated antibody (GenScript Biotech) at a dilution of 1:8,000 in PBS + 2% FBS was then added. After incubation for 1 h at RT and following washes, the colorimetric substrate 3,3′,5,5′-tetramethylbenzidine (TMB, SeraCare Life Sciences, Milford, MA, United States) was added to each well and absorbance was read at 450 nm by an ELISA plate reader (Tecan Infinite 200 PRO, Mannedorf, Switzerland).
To test the inhibitory effect of compounds on NS3-NS5 interaction, 6His-NS5_270–900-coated wells were incubated with a fixed amount of NS3 f.l. (200 ng) along with increasing concentrations of test compounds or DMSO as a control. To exclude non-specific inhibition of compounds due to colloidal aggregation, the inhibitory activities of compounds were tested in the presence or the absence of 0.002% Triton X-100 (Fisher Scientific), a condition which reverses and prevents the colloidal formation of organic molecules ([McGovern et al., 2003]). All the compound concentrations were tested at least in duplicate.

DENV-2 NGC strain = test: Plaque reduction assay (PRA) in Vero cells; type: cell-based; settings: for EC50: PRA in Vero cells, read-out: Antiviral activity EC50; for SI (selectivity index): ratio between CC50 and EC50
DENV-1 (TH-Sman strain) = test: Viral RNA reduction assay (RT-qPCR) in Vero cells; type: cell-based; settings: DENV-1, Vero cells, RT-qPCR at 72 h p.i.
Description: (§1) For viral RNA reduction assays with DENV serotypes 1 to 4, Vero cells were seeded at a density of 1 × 10^5 cells per well in 24-well plates. The next day, cells were infected at 37 °C with the different viruses in serum-free DMEM at the multiplicity of infection (MOI) of 0.001 and plates were rocked every 15 min. At the end of incubation, the viral inoculum was removed, and medium with 2% FBS containing various concentrations of test compounds was added. Viral RNA was isolated from the culture supernatant at 72 h p.i., using the PureLink Viral RNA/DNA Mini kit (Invitrogen, Waltham, MA, United States), according to the manufacturer’s instructions. Viral RNA was quantified using the One-Step RT-PCR kit Dengue Virus subtypes 1, 2, 3 and 4 PCRmax (Cole Parmer Instrument, Saint Neots, United Kingdom), according to the manufacturer’s instructions, on a 7,000 Real-time PCR platform (Applied Biosystems, Waltham, MA, United States).

DENV-2 (NGC strain) = test: Viral RNA reduction assay (RT-qPCR) in Vero cells; type: cell-based; settings: DENV-2, Vero cells, RT-qPCR at 72 h p.i.
Description: as §1

DENV-3 (H-87 strain) = test: Viral RNA reduction assay (RT-qPCR) in Vero cells; type: cell-based; settings: DENV-3, Vero cells, RT-qPCR at 72 h p.i.
Description: as §1

DENV-4 (H-241 strain) = test: Viral RNA reduction assay (RT-qPCR) in Vero cells; type: cell-based; settings: DENV-4, Vero cells, RT-qPCR at 72 h p.i.
Description: as §1

[2] = biological target: NS5-RdRp (NHS-NS5_270–900) (Dengue virus type 2, UniProt P14340); test: Microscale thermophoresis (MST) binding to labeled NS5-RdRp; design: species or system DENV-2; settings: medium MST power, 40% LED power
From the text: (§2) To obtain the purified helicase portion of NS3 (6His-NS3_177–618) and the main protease of SARS-CoV-2 (6His-M^pro) used for the MST analysis, we followed previously described protocols ([Celegato et al., 2023]; [Mercorelli et al., 2022]). The 6His–NS5 RdRp270–900 protein was expressed and purified as described above. For MST studies, 6His-NS5_270–900, 6His-NS3_177–618, and 6His-M^pro were fluorescently labeled using NanoTemper Protein labeling kit RED-NHS 2nd generation (MO-L011, NanoTemper Technologies GmbH, Munich, Germany). Protein and dye concentrations were determined by absorption spectroscopy using NanoDrop™ One spectrophotometer (ThermoFisher Scientific), considering, at 280 nm, ε = 171,350 M^–1cm^1 for recombinant NS5, ε = 66,140 M^–1cm^1 for NS3, ε = 32,890 M^–1cm^1 for M^pro, respectively. The ε = 195,000 M^1cm^1 at 650 nm was considered for the RED-NHS fluorophore, with a correction factor of 0.04. The degree of labeling (DOL) was calculated according to the manufacturer’s instructions, yielding a value of 0.63 for NHS-NS5, 0.98 for NHS-NS3, and 0.60 for NHS-M^pro, respectively. […] In all experiments, signal quality was monitored by the Monolith device to detect possible ligand auto-fluorescence, aggregation, or target protein adsorption to capillaries. Experiments were performed in triplicates and analyzed with the MO. […]

[3] = biological target: NS3-hel (NHS-NS3_177–618) (Dengue virus type 2, UniProt P14340); test: Microscale thermophoresis (MST) binding to labeled NS3-hel; design: species or system DENV-2; settings: same test concentrations (serial dilutions from 250 μM), 60% LED power
From the text: as §2

SARS-CoV-2 M^pro = SARS-CoV-2 M^pro (Severe acute respiratory syndrome coronavirus 2, UniProt P0DTD1); settings: MST binding check, up to 125 μM compound concentration
MTT cytotoxicity assay = settings: African green monkey, Vero cells
Vero cells = test: MTT cytotoxicity assay; settings: read-out: Cytotoxicity CC50; best analogues of hit 3, in-house synthesized hit 3 as control; MTT in Vero cells at 72 h

Cc1ccc(NC(=S)NNC(=O)c2ccccc2O)cc1 [Hit 3]
IC50 ([1]; analogues of hit 3, in-house synthesized hit 3 as control, 50% inhibition of NS3-NS5 binding in ELISA): 19.4 ± 7.8 µM
inhibition at 100 µM ([1]; fixed concentration of 100 μM, compared with DMSO control): ≥ 50%
IC50 ([1]; selected hits, concentration that decreased the NS3-NS5 binding by 50% in ELISA): 15.6 ± 4.5 µM
EC50 (DENV-2 NGC strain; Dengue virus, DENV2, Vero, best analogues of hit 3, in-house synthesized hit 3 as control, NGC strain): 1.8 ± 0.6 µM
EC50 (DENV-2 NGC strain; Dengue virus, DENV2, Vero, selected hits, 50% inhibition of viral plaque formation, DENV-2): 1.93 µM
SI (selectivity index) (DENV-2 NGC strain; best analogues of hit 3): >130
EC50 (DENV-2 NGC strain; selected hits, 50% inhibition of viral plaque formation, DENV-2): 1.9 ± 0.3 µM
SI (selectivity index) (DENV-2 NGC strain; selected hits): >130
viral RNA synthesis (DENV-1 (TH-Sman strain)): concentration-dependent reduction in viral RNA synthesis
viral RNA synthesis (DENV-2 (NGC strain)): concentration-dependent reduction in viral RNA synthesis
viral RNA synthesis (DENV-3 (H-87 strain)): concentration-dependent reduction in viral RNA synthesis
viral RNA synthesis (DENV-4 (H-241 strain)): concentration-dependent reduction in viral RNA synthesis
Kd [2]: 28.8 ± 4.5 µM
binding to NS3-hel [3]: not able to detect the binding; also recorded: no binding was observed
binding to SARS-CoV-2 M^pro (SARS-CoV-2 M^pro): No binding was detected
CC50 at 72 h (MTT cytotoxicity assay): > 250 µM
CC50 (Vero cells): > 250 µM
